Row | melting point [°C] | Compound
1 | 110 to 130 | Nc1cccc(-c2cccc(CC3CCCC3NCCc3ccccc3)c2)n1 (centres undefined)
2 | 110 to 112 | c1ccc(CSc2cnccc2C2=NOCCO2)cc1
3 | 246 to 252 | O=c1[nH]nc2c3c(cccc13)Oc1ccc(COP(=O)(O)O)cc1-2
4 | 170 to 174 | O=C(O)c1ccc(NCc2cccc(Cl)c2)cn1
5 | 158 to 159 | CCCCCC(=O)OCc1nccc2[nH]c(=O)ccc12
6 | 120 to 121 | CCOc1cccc(-n2cnc(-c3nc(CC)no3)c2)c1
7 | 152 to 153 | O=S(=O)(c1ccc(C(CC2CCOCC2)c2ccc(-c3ccc(Cn4cncn4)cn3)[nH]2)cc1)C1CC1 (centres undefined)
8 | 146 to 148 | CCOC(=O)N1CCN(c2nc(C)nc3c2OCC(=O)N3CC(O)CO)CC1 (centres undefined)
9 | 123 to 124 | CCOC(=O)C1Cc2cc3c(C)noc3c(Cl)c2O1 (centres undefined)
10 | 21.8 | C=CCCCc1cnc(-c2ccc(F)cc2)nc1
11 | 204 to 206 | Cc1cccc(Nc2cc(Cl)nc(Cl)n2)c1C
12 | 284 to 288 | NC(=O)c1cccc(C(N)=O)c1N
13 | 151 | Oc1cccc([C@H]2CC[C@@H](c3ccccc3)N2)c1 (racemic)
14 | 211 | Fc1cc(N2CCN(C3CCN(c4cccc5cccnc45)CC3)CC2)c2ncccc2c1
15 | 109 to 112 | O=C(Nc1ccc(Cl)c(Cl)c1)NS(=O)(=O)c1ccc2c(c1)C(O)CO2 (centres undefined)
16 | 74 to 75 | CCN(CC)CCOc1ccc(C(O)(CC)c2cccc(C(F)(F)F)c2)cc1 (centres undefined)
17 | 209 to 211 | CCNc1nc2cc(Cc3c(C)nc4cc(C)ccn34)ccc2o1
18 | 124 | Cn1cc(-c2cccc(F)c2)c(C(=O)NCCNC(=O)OC(C)(C)C)n1
19 | 184 to 185 | Cc1cc2oc(=O)c3c(c2cc1Cl)CCNC3
20 | 137 to 139 | C=CCOn1cnc2c(Cl)nc(N)nc21
21 | 174 to 180 | ClCCn1c(-c2ccccc2)nc2cc(CN3CCN(C(c4ccccc4)c4ccccc4)CC3)ccc21
22 | 190 | CCOC(=O)C1=C(C)Nc2nc(N3CCOCC3)nc(N3CCOCC3)c2C1c1cccc([N+](=O)[O-])c1 (centres undefined)
23 | 140 to 143 | Cc1nc(-n2cc(COc3ccccc3)nn2)sc1C(=O)NCc1ccccc1

Row | melting point [°C] | Compound
24 | 136 to 137 | NS(=O)(=O)CS(=O)(=O)c1ccc(SCCO)cc1
25 | 48 to 49 | CCOC(=O)Cn1cccc(NS(=O)(=O)Cc2ccccc2)c1=O
26 | 189 to 190 | OCc1c(-c2ccc(F)cc2)nn2ccc3c(c12)CCO3
27 | 226 to 228 | CCOC(=O)c1cc2c(cn1)[nH]c1ccc(N)cc12
28 | 68 to 69 | N#CNC(CSCc1ccccn1)=NCCO
29 | 126 to 135 | OCCCCCCCCCCCOc1ccc(-c2nc(-c3ccccc3)nc(-c3ccc(OCCCCCCCCCCCO)cc3O)n2)c(O)c1
30 | 90 to 93 | CN1CCN(c2ccc(S(=O)(=O)c3ccccc3)c(N)c2)CC1
31 | 210 to 212 | CCCCc1ncc(/C=C(\Cc2cccs2)C(=O)O)n1Cc1ccc(C(N)=O)cc1
32 | 153 to 154 | COc1cc(COc2nn(C)cc2CC(=O)O)ccc1OCc1nc(-c2ccccc2)oc1C
33 | 223 to 224 | CCCCc1ncc(C/C=C/C(N)(Cc2cccs2)C(=O)O)n1Cc1ccc(C(=O)O)cc1 (centres undefined)
34 | > 230 | COc1ccc(C(C)(C)C)cc1NC(=O)Nc1ccc(-c2cnc3c(c2)NC(=O)CN3)c2ccccc12
35 | 263 to 265 | Cn1c(C(F)(F)F)cc(=O)n(-c2ccc(Cl)c(C=CC#N)c2)c1=O
36 | 109 | Cc1cc(SCc2sc(-c3ccc(Cl)cc3)nc2C)ccc1OCC(=O)O
37 | 60 to 61 | CCCCCCCCCCCCCCCCC[C@@H](C[C@@H]1OC(=O)[C@H]1CC)OC(=O)[C@H](CC(C)C)NC=O
38 | 209 to 210 | CC(=O)N1c2ccccc2N(Cc2ccccc2)C(=O)[C@H]2CCC[C@H]21 (relative stereo)
39 | 219 to 221 | Nc1nc(Cl)cc(Oc2ccc3c(C(=O)Nc4cccc(C(F)(F)F)c4)cnn3c2)n1
40 | 58 | Cc1cccc(C)c1N(Cn1cc(C(C)C)cn1)C(=O)CCl
41 | 200 to 220 | Cc1ccc(-c2cc3ncnc(Nc4ccc5[nH]ccc5c4)c3s2)cc1
42 | 261 | CC(C)c1nc2[nH]c(=O)ccc2c(-c2ccc(F)cc2)c1/C=C/C=O
43 | 194 to 196 | Cn1cnc(C(N)=O)c1NC(=S)NC(=O)c1ccccc1
44 | 110 to 112 | CCCc1cc(=O)oc2cc(OC(=O)C(C)(C)C)cc(OC(=O)C(C)(C)C)c12
45 | 151 | Nc1nc(N)nc(NC2CCCCC2)n1
46 | 167 to 177 | O=C(O)c1ccc(Br)cc1COc1ccc2c(c1)OCO2

Row | melting point [°C] | Compound
47 | 110 | O=c1[nH]cccc1Cc1cccc(F)c1
48 | 106 to 108 | O=C(OCc1ccccc1)[C@H](CCCCO)N1C(=O)c2ccccc2C1=O
49 | 234 to 235 | Cc1cc(-c2nc3cccnn3c2-c2ccnc(NC(=O)Nc3ccsc3)c2)ccc1F
50 | 194 to 195 | O=C(Nc1cccc([N+](=O)[O-])c1)C1=C(Nc2ccccc2)COC1=O
51 | 103 to 108 | CCNC(=O)CC(Cc1cccc2ccccc12)C(=O)NC(Cc1c[nH]cn1)C(=O)NC(CC(C)C)C(O)C(=O)OC (mixture of isomers)
52 | 186 to 190 | CCN(CC)C(=O)c1nc(-c2ccc(Cl)cc2Cl)[nH]c1C(F)(F)F
53 | 80 to 81 | CC[C@H](C)[C@H](N)C(=O)N(CC(C)C)C(=O)[C@@H]1CCCN1CC(=O)[C@H](Cc1ccccc1)NC(=O)OCc1ccccc1
54 | 189 to 190 | COc1ccc(S(=O)(=O)Nc2cc(Cl)cc(Cl)c2OC)cc1N1CCNCC1
55 | 276 to 278 | CCN1CCN(c2c(F)c(N)c3c(=O)c(C(=O)O)cn(C4CC4)c3c2F)CCC1=O
56 | 118 to 120 | Cc1cccc(Nc2ccccc2[N+](=O)[O-])c1C
57 | 63 to 64 | CC(C)(C)OC(=O)C[C@H](O)CC#N
58 | 96 to 97 | CC(C)(CO)CCCC(O)CCC(O)CCCC(C)(C)CO (centres undefined)
59 | 120 | COc1ccc(Oc2cccc(NC(=O)c3ccn4c3CSC4c3cccnc3)c2)cc1 (centres undefined)
60 | 168 to 170 | O=[N+]([O-])c1ccc(-c2nc(-c3ccco3)no2)cc1
61 | 123 to 125 | ON=C1CC(c2ccccc2)c2ccccc21 (centres undefined)
62 | 58 to 72 | CCOC(=O)C(Cc1ccccc1)CP(=O)(OCC)OCC (centres undefined)
63 | 91 to 92 | CC(C)CC(NC(=O)OC(C)(C)C)C(=O)NCCC(=O)O (centres undefined)
64 | 254 to 256 | O=C1c2ccccc2-c2oc(=O)c3ccccc3c21
65 | 117 to 119 | NS(=O)(=O)c1cc2c(s1)S(=O)(=O)N(CCc1ccccc1)C[C@H]2O
66 | 191 to 193 | NS(=O)(=O)C12CC3CC(CC(C3)C1)C2
67 | 163 to 165 | CCOC(=O)/C=C/c1c(-c2ccccc2)c2ccccc2c(=O)n1C
68 | 100 to 105 | N#CC(O)C(=O)c1ccccc1 (centres undefined)
69 | 272 | c1ccc(-c2cc(-c3nc(-c4ccccc4)nc(-c4ccccc4)n3)c(-c3nccc4ccccc34)c(-c3cc4ccccc4c4ccccc34)c2)cc1

Row | melting point [°C] | Compound
70 | 134 to 136 | CS(=O)(=O)CCNc1cc(C(c2cc(F)ccc2F)S(=O)(=O)c2ccc(Cl)cc2)c(Cl)cn1 (centres undefined)
71 | 155 to 157 | Fc1cc(F)c(-c2c(Cl)nc3nccn3c2NCC(F)(F)F)c(F)c1
72 | 91 to 93 | O=C1CC(=O)C(C2CCCSC2)CO1 (centres undefined)
73 | 113 | CO[C@@H]1C=C(S(=O)(=O)c2ccccc2)[C@@H](C(C)C)CC1
74 | 174 to 176 | Cc1cc(-c2cc(C(F)(F)F)nn2-c2ccc(S(C)(=O)=O)cc2)ccc1-c1ccco1
75 | 108 to 110 | O=C(O)C(CCSc1ccccc1)Oc1ccc(C(F)(F)F)cc1 (centres undefined)
76 | 154 to 155 | O=S(=O)(c1ccc(Cl)cc1)C1(c2nnnn2Cc2ccccc2)CCCCC1
77 | 299 | O=c1c(-c2ccc(Cl)cc2)coc2cc(O)c(O)cc12
78 | 145 to 146 | O=C(O)c1cc2ccccc2c(-c2cccc(I)c2)n1
79 | 171 to 173 | Cc1ccc(Cl)cc1N1C(=O)C(=O)N(C)C1=S
80 | 178 to 180 | O=C(NCCO)c1[nH]c2ccc(Cl)cc2c1-c1ccccc1F
81 | 158 to 159 | COc1ccc(-c2cc3cc(F)c(F)cc3[nH]2)cc1NCc1ccc(C#N)cc1
82 | 76 to 77 | CCCCCC(=O)N1c2cscc2C(=O)N(C)c2ccccc21
83 | 159 to 161 | COc1cc(C(C)C)ccc1C1(NC(=O)OC(C)C)C(=O)c2ccccc2C1=O
84 | 161 to 163 | CCOc1cc(NC(C)=O)c(Cl)cc1C(=O)NCC1CN(Cc2ccc(F)cc2)CCO1 (centres undefined)
85 | 57 to 59 | COCCCNc1ccc([N+](=O)[O-])cc1
86 | 141 to 143 | CCOc1cc2c(Nc3cc(OC)c(Cl)cc3Cl)c(C#N)cnc2cc1OCCN1CCN(C)CC1
87 | 120 to 123 | O=C(Nc1ccc(F)cc1F)N(Cc1ccccc1)CC(c1ccccc1)c1ccccc1
88 | 118 to 119 | CC(=O)CC(=O)N1c2ccc(C(O)(C(F)(F)F)C(F)(F)F)cc2CC1C (centres undefined)
89 | 100 to 104 | CN1CC(CC#N)CC2c3cccc4c3C(CN4)CC21 (centres undefined)

Row | Compound | melting point [°C]
90 | CCc1cccc2c1C(=O)N1CCC[C@H]1c1c(C(=O)OC(C)(C)C)ncn1-2 | 155 to 156
91 | CCC(C)(CC)C(=O)N[C@H]1C[C@@H]2c3cccc4[nH]c(C)c(c34)C[C@H]2N(C)C1 | 191 to 192
92 | Fc1cccc2c1OC(CN1CC=C(c3c[nH]c4ccccc34)CC1)CO2 (centres undefined) | 174 to 177
93 | CC(C)NC(=O)c1ccc(N2CCC(N3C(=O)OCc4ccccc43)CC2)c(C#N)c1 | 200
94 | CCCSP(=O)(OCC)Oc1ccc2cc3ccccc3cc2c1 (centres undefined) | 79 to 83
95 | O=[N+]([O-])N=C1SCCN1Cc1ccc(Cl)nc1 | 137 to 138
96 | c1ccc2sc(N3CCNCC3)nc2c1 | 63 to 64
97 | COC(=O)c1ccc(CC(C)NCC(O)c2cc(Cl)c(N)c(Cl)c2)cc1 (centres undefined) | 97 to 115
98 | CCOC(=O)C1N=C(c2ccccc2)c2ccccc2NC1=O (centres undefined) | 226
99 | COc1ccc(C2(C(C)NCc3ccncc3)CCC2)cc1 (centres undefined) | 110 to 113

Reference: a melting point compilation (Tetko et al.; mined from patent text by program, amines drawn as free bases though some values may be those of a salt)
